Experimental data as given in US20150315179A1, “COMPOUNDS AND METHODS OF TREATING NEUROLOGICAL DISORDERS” (Torrey Pines Institute For Molecular Studies, priority 2014, published 2015).
Blank lines part the entries; values can stand above or below the compound they belong to.

What was measured:
[1] = tested on: sAPPα release, fibroblasts derived from AD patients; assay: sAPPα ELISA, AD fibroblasts; assay type: cell-based, human; details: 24 h
Description: (1). […] Therefore, we first used fibroblasts derived from AD patients (AG06263C, Coriell Cell repository, supported by NINDS/NIH) and exposed to THPI-244 for 24 h and measured sAPPα release by ELISA as done above for NT2 cells. […] We also confirmed dose-dependent effect of THPI-244 on sAPPα levels in human primary neurons transiently transfected with APP751 with Swedish mutation which is trafficked differently from WT APP and releases more sAPPα. Human neurons were grown on specially coated glass coverslips (cat # GG-18-PDL, NeuVitro, Germany). We could reproducibly achieve nearly 30% transfection efficiency using a nanoparticle based transfection reagent called Neuromag (cat # NM150299, OZ Biosciences, France).

[2] = tested on: Aβ42 levels, NT2 cells stably expressing APP751; assay: Aβ42 ELISA, NT2 stable cells; assay type: cell-based, human; details: ELISA
Description: (§1) (5). To confirm the effect of THPI-244 on sAPPα levels in a neuronal cell line and by a tertiary assay, we exposed human Neuron-committed Teratocarcinoma cell line (NT2) stably expressing human APP751 to different concentrations of THPI-244 for 24 h and compared with that of Bryostatin, a classical activator of PKC known to stimulate sAPPα release. […] Levels of sAPPα were measured by ELISA using commercially available kit (cat #27734, IBL-America, Minneapolis, Minn., USA). […] Similar biphasic effect of Bryostatin was confirmed for Aβ42 also, measured again in NT2 stable cells by ELISA (cat # KHB3441, Life Technologies, Grand Island, N.Y., USA). Consistent with sAPPα, THPI-244 decreased Aβ42 levels dose-dependently starting from 50 nM (28%, p<0.05) to 2000 nM (64%, p<0.001) (n=4 independent experiments) (FIG. 1.7). Thus THPI-244 increased non-amyloidogenic processing of APP in NT2 cells.

[3] = tested on: sAPPα release, NT2 cells stably expressing human APP751; assay: sAPPα ELISA, NT2 cells expressing APP751; assay type: cell-based; details: 24 h
Description: as §1

[4] = tested on: NT2 cells stably expressing APP751; assay: SAHA treatment, APP fragments in NT2 cells; assay type: cell-based, human; details: SAHA application
Text: (§2) We utilized a commercially available AlphaLISA detection kit to develop an HTS assay for identification of compounds that increase sAPPα production in CHO cells stably expressing APP751 (7WD10 cells) (FIG. 2.1B). There are several cell lines that have been used extensively in Alzheimer's disease research. For example, NT2 cells are highly used in AD basic and drug discovery research because they are derived from a human embryonal carcinoma cell line and they can be differentiated into post-mitotic neuron-like cells that develop functional dendrites and axons resembling primary neurons of the human brain [39]. NT2 cells also synthesize amyloid precursor protein important in Alzheimer's disease. However, the rate of growth of NT2 cells is much slower than rate of growth of 7WD10s cells, which makes them less HTS-amenable. We have analyzed both 7WD10 and NT2 cells for expression of the hallmark proteins of Alzheimer's disease: soluble APPα, soluble APPβ, Aβ, and membrane-bound full length APP (APP-FL). […] Since it was shown that broad HDAC inhibition results in a decrease of Aβ and an increase of soluble APPα [41] we tested both cell lines for the effect of application of SAHA (suberoylanilide hydroxamic acid or vorinostat), a pan-HDAC inhibitor [42].

[5] = tested on: 7WD10 (CHO) cells stably expressing APP751; assay: SAHA treatment, APP fragments in 7WD10 (CHO) cells; assay type: cell-based; details: SAHA application
Description: (§3) Western blot sAPPα release assay. 7WD10 cells were grown in 6-well plates and treated with test compounds and SAHA (vorinostat) at several concentrations in duplicate wells. After 24 h of drug exposure, the conditioned media (CM) was collected, centrifuged to remove cell debris and subjected to SDS-PAGE electrophoresis. sAPPα (6E10, mouse IgG from IBL America ltd) was detected using indicated antibody. To detect APP-FL holoprotein and C-terminal fragments (CTFs, CT15 antibody), the cells were lysed using lysis buffer (1% NP40) with complete protease inhibitor mix (Sigma) supplemented with sodium vanadate and microcystine. Samples were subjected to SDS-PAGE, transferred and immunoblotted with indicated antibodies and detected by enhanced chemiluminescence method. Quantification of Western blot signals was done using ImageJ software.
as §2

[6] = tested on: sAPPα release from 7WD10 cells; assay: AlphaLISA sAPPα release assay (pilot screen); assay type: cell-based
Description: Pilot screen of AlphaLISA sAPPα release assay. 8 μL of assay media (DMEM supplemented with 10% FBS and 1× Penicillin/Streptomycin) containing 20,000 cells were added to all wells of the assay plate, except column 1 where only media was added. Plates were incubated for 4 h at 37° C., 5% CO2, 95% RH after which 80 nL of test compounds in DMSO or DMSO alone were added to respective wells using a pin tool device (VP Scientific, San Diego). After 24 h of incubation at 37° C., 5% CO2, 95% RH, sAPPα AlphaLISA beads were added in 10 μL of buffer, equilibrated for 1 h, and AlphaLISA signal was measured using a Biotek H4 Synergy microplate reader (Biotek Inc). Three parameters were calculated on a per-plate basis: (a) the signal-to-background ratio (S/B); (b) the coefficient for variation [CV; CV=(standard deviation/mean)×100)] for all compound test wells; and (c) the Z′-factor [31]. Nominally active compounds from the pilot screen were determined using mean plus 3 times the standard deviation (Mean+3SD) was used as the cut-off.

[7] = tested on: sAPPα in supernatants of 7WD10 cells; assay: Western blot sAPPα release assay, 7WD10 cells; assay type: cell-based; details: as low as 10 nM, 7WD10 supernatants
Description: (2). To ascertain that hits identified as a result of AlphaLISA assay are not due to artifacts of the detection system, the sAPPα levels were measured by Western blots as a secondary assay downstream of primary HTS to confirm hits or discard artifacts of the AlphaLISA assay. The assay was performed using a range of concentrations of hit compounds (10-5,000 nM). A hit compound named thiazole piperazine #244 (THPI-244) and THPI-326 induced dose-dependent increase of sAPPα in supernatants of 7WD10 cells (FIG. 1.3). […] Since compound THPI-244 increased sAPPα levels more than THPI-326, we focused on THPI-244 for further validation.
as §3

BBB of THPI-244 analogs = assay: BBB of THPI-244 analogs
Text: (§4) The following table illustrates Chemical structures and properties of THPI-244 analogs selected out of 37 analogs, and each have significant sAPPα increasing activity. Toxicity is the minimum dose for toxicity.

sAPPα = sAPPα increasing activity of THPI-244 analogs; assay type: cell-based
Text: as §4

TrkA = TrkA increase by THPI-244 analogs; assay type: cell-based
Text: as §4

[8] = tested on: Aβ40 in conditioned medium of 7WD10 cells; assay: Aβ40 release ELISA, 7WD10 cells; assay type: cell-based
Text: sAPPα and Aβ40 release ELISA assay. 7WD10 cells stably expressing APP751 were used for the detection of sAPPα in the conditioned medium (CM). For the detection of sAPPα, human sAPPα assay kit from IBL (Immuno-Biological Laboratories Co., Ltd, cat #27734) was used. The kit is a solid phase sandwich ELISA using two different antibodies. The principle of the method is based on the use of tetra methyl benzidine (TMB) as a chromogen and the strength of the generated color is proportional to the quantities of human sAPPα. Briefly, cells were grown in 6-well plates and treated with compound 1 at 0, 50, 75, 100, 125 and 150 μM final concentrations. After 24 hours of compound exposure, the CM was collected, centrifuged to remove cell debris and used in the assay. 100 μL of EIA buffer was used as blank. The 100 μL of test samples were put in to each well and incubated the precoated plate overnight at […] covered with plate lid. After overnight incubation, wells were vigorously washed with wash buffer several times. Then 100 μL of labeled antibody was added, incubated at 40 C for 30 minutes and washed again several times. Plates were incubated with chromogen solution for 30 minutes, and read at 450 nm after adding stop solution. Levels of Aβ40 in the CM treated with different concentrations of compound 1 as detailed above were measured by sandwich ELISA exactly as described previously. Aβ40 was captured with Ab9 antibody (epitope, 1-16 of Aβ40) and detected with horseradish peroxidase-conjugated Ab13.1.1 antibody (epitope, 35-40 of Aβ40).

[9] = tested on: sAPPα in conditioned medium of 7WD10 cells; assay: sAPPα release ELISA, 7WD10 cells; assay type: cell-based; details: 24 h
Description: Starting from p-methylbenzhydrylamine hydrochloride (MBHA.HCl) resin; we developed different approaches toward the diversity oriented solid-phase parallel synthesis of different aminothiazole compounds 1-6 (Scheme 1) (Micheals, H A et al., 2014, ACS Comb. Sci. 16, 1-4; Nefzi, A et al., 2010, J. Org. Chem. 75, 7939-7941). 575 thiazole compounds were synthesized and were tested for sAPPα increasing activity using CHO cells stably expressing APP751 wt. For initial screenings we used a cell-based human sAPPα ELISA kit (cat#27734, IBL Co., ltd, Japan) following instructions from the manufacturer. The method involves sandwich ELISA and use of two specific antibodies and tetra methyl benzidine as a coloring agent. […]
sAPPα and Aβ40 release ELISA assay. […] The principle of the method is based on the use of tetra methyl benzidine (TMB) as a chromogen and the strength of the generated color is proportional to the quantities of human sAPPα. […] Plates were incubated with chromogen solution for 30 minutes, and read at 450 nm after adding stop solution. Levels of Aβ40 in the CM treated with different concentrations of compound 1 as detailed above were measured by sandwich ELISA exactly as described previously. Aβ40 was captured with Ab9 antibody (epitope, 1-16 of Aβ40) and detected with horseradish peroxidase-conjugated Ab13.1.1 antibody (epitope, 35-40 of Aβ40).

7WD10 cells = assay: CellTiter-Glo cell viability assay; assay type: cell-based; details: for viability: 100 μM
Description: Cell viability assay. 7WD10 cells were plated in 384-well plates in 8 μL of media. Plates were incubated for 4 and 24 h at 37° C., 5% CO2 and 95% RH. After incubation, 8 μL of CellTiter-Glo® (Promega cat#: G7570) were added to each well, and incubated for 15 min at room temperature. Luminescence was recorded using a Biotek Synergy H4 microplate reader. Viability is expressed as a % relative to wells containing media only (0%) and wells containing cells (100%).
In the absence of known pharmacological agents capable of inducing an increase of sAPPα release, we tested a small molecule (FIG. 2.4A insert, compound 1 in [2]) shown to decrease Aβ release. It was shown that decrease of Aβ release could be accompanied by the increase of soluble APPα, which has a neuroprotective effect. Compound 1 was tested using 20,000 cells/well in the range of 1.2-100 μM using 3-fold serial dilutions and 24 h incubation as an assay endpoint. Increase of sAPPα release was observed only in wells where 100 μM of compound 1 was added either with or without FBS (FIG. 2.4A). Viability of cells was also tested in the presence of 1.2-100 μM of compound 1 to ascertain that the increase of sAPPα release is not due to excessive cell death. Consistent with the above described results, cells were less viable in the absence of FBS. In the presence of 1.2-33 μM of compound 1, cells were approximately 10% less viable than untreated control either with or without FBS (FIG. 2.4B).

SMILES: CCC/C=C/C=C/C(=O)O[C@H]1/C(=C/C(=O)OC)C[C@H]2C[C@H]([C@@H](C)O)OC(=O)C[C@H](O)C[C@@H]3C[C@H](OC(C)=O)C(C)(C)[C@](O)(C[C@@H]4C/C(=C/C(=O)OC)C[C@H](/C=C/C(C)(C)[C@]1(O)O2)O4)O3 [Bryostatin, reference compound]
concentration from which sAPPα increase is significant [1]: 10 nM
concentration from which Aβ42 decrease is significant [2]: 10 nM
concentration from which sAPPα increase is significant [3]: 10 nM
effect on sAPPα release [3]: increased sAPPα at low nM concentrations, but then decreased levels dose-dependently

SMILES: O=C(CCCCCCC(=O)Nc1ccccc1)NO [SAHA, suberoylanilide hydroxamic acid]
Aβ [4]: decrease
levels of APP-FL [4]: not affected
sAPPβ [4]: decrease
Aβ [5]: decrease
levels of APP-FL [5]: not affected
sAPPβ [5]: decrease

SMILES: CCC(C)C(=O)N1CCN(Cc2csc(NC[C@H](Cc3ccc(O)cc3)NC(=O)Cc3ccccc3)n2)CC1 (stereo partly shown) [THPI-326]
increase of Alpha signal (sAPPα release) ([6]; 5 μM, 7WD10 cells, 24 h): ~2 fold
increase of sAPPα over untreated control cells [7]: 2 fold

% BBB (BBB of THPI-244 analogs): 1.0%
SMILES: Cc1cnc(C(=O)N[C@H](CNc2nc(CN3CCNCC3)cs2)c2ccccc2)cn1 [TPI-2336-55]
% sAPPα ↑ (sAPPα): 217%
% TrkA ↑ (TrkA): 69%

% BBB (BBB of THPI-244 analogs): 5.6%
SMILES: c1ccc(CCNc2nc(CN3CCOCC3)cs2)cc1 [TPI-2336-99]
% sAPPα ↑ (sAPPα): 160%
% TrkA ↑ (TrkA): 51%

% BBB (BBB of THPI-244 analogs): 5.9%
SMILES: c1ccc(CCNc2nc(CN3CCCCC3)cs2)cc1 [TPI-2336-100]
% sAPPα ↑ (sAPPα): 166%
% TrkA ↑ (TrkA): 54%

SMILES: O=C(NCCSCc1cccc(Cl)c1)c1c(Cl)cccc1Cl [compound 1, 2,6-dichloro-N-{2-[(3-chlorobenzyl)thio]ethyl}benzamide]
increase of AlphaLISA signal ([6]; 100 μM compound 1, assay development and pilot screen): 2 fold
concentration at which increase of sAPPα release was observed ([6]; tested 1.2-100 μM, 20,000 cells/well, 24 h, with or without FBS): 100 µM
decrease of Aβ40 supernatant levels ([8]; 100 μM): 24%
decrease of Aβ40 supernatant levels ([8]; 125 μM): 43%
decrease of Aβ40 supernatant levels ([8]; 150 μM): 49%
increase of sAPPα over untreated control cells ([9]; 100 μM): 2 fold
maximal effect, increase of sAPPα ([9]; 150 μM): 3 fold
viability (7WD10 cells; with FBS): ~70%
viability (7WD10 cells; without FBS): ~40%
loss of viability versus untreated control (7WD10 cells; 1.2-33 μM, with or without FBS): approximately 10%
